Patent US20170121315A1, “HETEROBICYCLICALLY SUBSTITUTED 4-OXOBUTANE ACID DERIVATIVES AND USE THEREOF” (priority 2014, published 2017)

Molecular target: T1, human macrophage elastase (HME/hMMP-12) (Homo sapiens, UniProt P39900)
T1 construct: purchased R&D Systems 917-MP
Experiment: In vitro HME inhibition test (standard or high-sensitivity)
Format: biochemical
Details: in some cases mean values, rounded to two significant figures
Method in brief: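 Autoactivated HME (0.5 nM; high-sensitivity format 0.05 nM, ~16 h) with 5 μM quenched Mca-PLGLEEA-Dap(Dnp)-NH2 substrate in HEPES pH 7.4, NaCl, CaCl2, ZnCl2, EDTA, Brij buffer, 2 h at 37° C. Fluorescence at ex 323/em 393 nm; IC50 from signal versus concentration.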

T1 sequence (P39900 106-470): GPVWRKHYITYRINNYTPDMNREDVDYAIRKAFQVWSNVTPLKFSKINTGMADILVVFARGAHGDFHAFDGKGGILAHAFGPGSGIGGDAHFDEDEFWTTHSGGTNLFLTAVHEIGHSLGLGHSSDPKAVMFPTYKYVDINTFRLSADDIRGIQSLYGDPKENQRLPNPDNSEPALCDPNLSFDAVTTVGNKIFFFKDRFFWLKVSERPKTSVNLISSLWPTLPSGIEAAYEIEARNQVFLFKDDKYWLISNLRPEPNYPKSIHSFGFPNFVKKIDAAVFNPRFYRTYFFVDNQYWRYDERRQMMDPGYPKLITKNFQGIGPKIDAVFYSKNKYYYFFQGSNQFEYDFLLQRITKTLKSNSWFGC

SMILES | IC50 [nM]
CCCCOc1ccc2cc(C(=O)CC(CCn3nnc4ccccc4c3=O)C(=O)O)oc2c1 (single isomer, unassigned; (+)) [Example 63, (+)-4-(6-Butoxy-1-benzofur-2-yl)-4-oxo-2-[2-(4-oxo-1,2,3-benzotriazin-3(4H)-yl)ethyl]butanoic acid] | 2.2
O=C(CC(CCn1nnc2ccccc2c1=O)C(=O)O)c1coc2cc(OCC3CCOCC3)ccc12 (single isomer, unassigned; (+)) [Example 96, (+)-4-Oxo-2-[2-(4-oxo-1,2,3-benzotriazin-3(4H)-yl)ethyl]-4-[6-(tetrahydro-2H-pyran-4-ylmethoxy)-1-benzofur-3-yl]butanoic acid] | 0.81
CCCCCCCOc1ccc2c(C(=O)CC(CCn3nnc4ccccc4c3=O)C(=O)O)coc2c1 (single isomer, unassigned; (+)) [Example 103, (+)-4-[6-(Heptyloxy)-1-benzofur-3-yl]-4-oxo-2-[2-(4-oxo-1,2,3-benzotriazin-3(4H)-yl)ethyl]butanoic acid acid] | 0.23
CC(C)COc1ccc2c(C(=O)CC(CCn3nnc4ccccc4c3=O)C(=O)O)coc2c1 (single isomer, unassigned; (+)) [Example 105, (+)-4-(6-Isobutoxy-1-benzofur-3-yl)-4-oxo-2-[2-(4-oxo-1,2,3-benzotriazin-3(4H)-yl)ethyl]butanoic acid] | 0.21
CCCCOc1ccc2c(C(=O)CC(CCn3nnc4ccccc4c3=O)C(=O)O)coc2c1 (single isomer, unassigned; (+)) [Example 108, (+)-4-(6-Butoxy-1-benzofur-3-yl)-4-oxo-2-[2-(4-oxo-1,2,3-benzotriazin-3(4H)-yl)ethyl]butanoic acid] | 0.23
O=C(CC(CCn1nnc2ccccc2c1=O)C(=O)O)c1cc2cc(OCc3ccccc3)ccc2o1 (single isomer, unassigned; (-)) [Example 29, (−)-4-[5-(Benzyloxy)-1-benzofur-2-yl]-4-oxo-2-[2-(4-oxo-1,2,3-benzotriazin-3(4H)-yl)ethyl]butanoic acid] | 770
NC(=O)c1cccc(COc2ccc3oc(C(=O)CC(CCn4nnc5ccccc5c4=O)C(=O)O)cc3c2)c1 (single isomer, unassigned; (-)) [Example 33, (−)-4-{5-[(3-Carbamoylbenzyl)oxy]-1-benzofur-2-yl}-4-oxo-2-[2-(4-oxo-1,2,3-benzotriazin-3(4H)-yl)ethyl]butanoic acid] | 350
CCCCOc1ccc2cc(C(=O)CC(CCn3nnc4ccccc4c3=O)C(=O)O)oc2c1 (single isomer, unassigned; (-)) [Example 62, (−)-4-(6-Butoxy-1-benzofur-2-yl)-4-oxo-2-[2-(4-oxo-1,2,3-benzotriazin-3(4H)-yl)ethyl]butanoic acid] | 570
CCCCCCCOc1ccc2cc(C(=O)CC(CCn3nnc4ccccc4c3=O)C(=O)O)oc2c1 (single isomer, unassigned; (-)) [Example 68, (−)-4-[6-(Heptyloxy)-1-benzofur-2-yl]-4-oxo-2-[2-(4-oxo-1,2,3-benzotriazin-3(4H)-yl)ethyl]butanoic acid] | 890
O=C(CC(CCn1nnc2ccccc2c1=O)C(=O)O)c1coc2cc(OCC3CCOCC3)ccc12 (single isomer, unassigned; (-)) [Example 97, (−)-4-Oxo-2-[2-(4-oxo-1,2,3-benzotriazin-3(4H)-yl)ethyl]-4-[6-(tetrahydro-2H-pyran-4-ylmethoxy)-1-benzofur-3-yl]butanoic acid] | 25

Continued by falling IC50, values first:

IC50 [nM] | SMILES
1900 | O=C(CC(CCn1nnc2ccccc2c1=O)C(=O)O)c1coc2cc(OCC3CCCC3)ccc12 (single isomer, unassigned; (-)) [Example 79, (−)-4-[6-(Cyclopentylmethoxy)-1-benzofur-3-yl]-4-oxo-2-[2-(4-oxo-1,2,3-benzotriazin-3(4H)-yl)ethyl]butanoic acid]
1400 | CCCCCOc1ccc2cc(C(=O)CC(CCn3nnc4ccccc4c3=O)C(=O)O)oc2c1 (single isomer, unassigned; (-)) [Example 56, (−)-4-Oxo-2-[2-(4-oxo-1,2,3-benzotriazin-3(4H)-yl)ethyl]-4-[6-(pentyloxy)-1-benzofur-2-yl]butanoic acid]
860 | O=C(CC(CCn1nnc2ccccc2c1=O)C(=O)O)c1cc2cc(OCCc3ccccc3)ccc2o1 (single isomer, unassigned; (-)) [Example 20, (−)-4-Oxo-2-[2-(4-oxo-1,2,3-benzotriazin-3(4H)-yl)ethyl]-4-[5-(2-phenylethoxy)-1-benzofur-2-yl]butanoic acid]
470 | CCCOc1ccc2c(C(=O)CC(CCn3nnc4ccccc4c3=O)C(=O)O)coc2c1 (single isomer, unassigned; (-)) [Example 87, (−)-4-Oxo-2-[2-(4-oxo-1,2,3-benzotriazin-3(4H)-yl)ethyl]-4-(6-propoxy-1-benzofur-3-yl)butanoic acid]
340 | CCCCCCOc1ccc2cc(C(=O)CC(CCn3nnc4ccccc4c3=O)C(=O)O)oc2c1 (single isomer, unassigned; (-)) [Example 65, (−)-4-[6-(Hexyloxy)-1-benzofur-2-yl]-4-oxo-2-[2-(4-oxo-1,2,3-benzotriazin-3(4H)-yl)ethyl]butanoic acid]
210 | O=C(CC(CCn1nnc2ccccc2c1=O)C(=O)O)c1cc2cc(OCc3ccc(F)cc3)ccc2o1 (single isomer, unassigned; (-)) [Example 24, (−)-4-{5-[(4-Fluorobenzyl)oxy]-1-benzofur-2-yl}-4-oxo-2-[2-(4-oxo-1,2,3-benzotriazin-3(4H)-yl)ethyl]butanoic acid]
160 | O=C(CC(CCn1nnc2ccccc2c1=O)C(=O)O)c1cc2cc(OCc3ccc(Cl)c(Cl)c3)ccc2o1 (single isomer, unassigned; (-)) [Example 26, (−)-4-{5-[(3,4-Dichlorobenzyl)oxy]-1-benzofur-2-yl}-4-oxo-2-[2-(4-oxo-1,2,3-benzotriazin-3(4H)-yl)ethyl]butanoic acid]
2.4 | CCCCCCOc1ccc2cc(C(=O)CC(CCn3nnc4ccccc4c3=O)C(=O)O)oc2c1 (single isomer, unassigned; (+)) [Example 66, (+)-4-[6-(Hexyloxy)-1-benzofur-2-yl]-4-oxo-2-[2-(4-oxo-1,2,3-benzotriazin-3(4H)-yl)ethyl]butanoic acid]
1.4 | O=C(CC(CCn1nnc2ccccc2c1=O)C(=O)O)c1coc2cc(OCC3CCCCC3)ccc12 (single isomer, unassigned; (-)) [Example 83, (−)-4-[6-(Cyclohexylmethoxy)-1-benzofur-3-yl]-4-oxo-2-[2-(4-oxo-1,2,3-benzotriazin-3(4H)-yl)ethyl]butanoic acid]
1.1 | CCCOc1ccc2c(C(=O)CC(CCn3nnc4ccccc4c3=O)C(=O)O)coc2c1 (single isomer, unassigned; (+)) [Example 88, (+)-4-Oxo-2-[2-(4-oxo-1,2,3-benzotriazin-3(4H)-yl)ethyl]-4-(6-propoxy-1-benzofur-3-yl)butanoic acid]
0.38 | O=C(CC(CCn1nnc2ccccc2c1=O)C(=O)O)c1coc2cc(OCc3ccccc3)ccc12 (single isomer, unassigned; (+)) [Example 85, (+)-4-[6-(Benzyloxy)-1-benzofur-3-yl]-4-oxo-2-[2-(4-oxo-1,2,3-benzotriazin-3(4H)-yl)ethyl]butanoic acid]
